In ChEMBL document CHEMBL1137913, “Piperidine-containing beta-arylpropionic acids as potent antagonists of alphavbeta3/alphavbeta5 integrins” (Bioorg Med Chem Lett, 2004):

Key:
Integrin alpha-V/beta-3 = Integrin alpha-V/beta-3 (Homo sapiens, UniProt P05106+P06756); experiment: Inhibition of human vitronectin binding to immobilized Alpha v beta-3; assay type: protein-complex assay
[1] = target: T1, Integrin alpha-IIb/beta-3 (Homo sapiens, UniProt P05106+P08514); experiment: Inhibition of human Biotinylated Fg binding to immobilized Alpha II beta-3; assay type: protein-complex assay
T1 sequence (P05106 27-788 limits assumed): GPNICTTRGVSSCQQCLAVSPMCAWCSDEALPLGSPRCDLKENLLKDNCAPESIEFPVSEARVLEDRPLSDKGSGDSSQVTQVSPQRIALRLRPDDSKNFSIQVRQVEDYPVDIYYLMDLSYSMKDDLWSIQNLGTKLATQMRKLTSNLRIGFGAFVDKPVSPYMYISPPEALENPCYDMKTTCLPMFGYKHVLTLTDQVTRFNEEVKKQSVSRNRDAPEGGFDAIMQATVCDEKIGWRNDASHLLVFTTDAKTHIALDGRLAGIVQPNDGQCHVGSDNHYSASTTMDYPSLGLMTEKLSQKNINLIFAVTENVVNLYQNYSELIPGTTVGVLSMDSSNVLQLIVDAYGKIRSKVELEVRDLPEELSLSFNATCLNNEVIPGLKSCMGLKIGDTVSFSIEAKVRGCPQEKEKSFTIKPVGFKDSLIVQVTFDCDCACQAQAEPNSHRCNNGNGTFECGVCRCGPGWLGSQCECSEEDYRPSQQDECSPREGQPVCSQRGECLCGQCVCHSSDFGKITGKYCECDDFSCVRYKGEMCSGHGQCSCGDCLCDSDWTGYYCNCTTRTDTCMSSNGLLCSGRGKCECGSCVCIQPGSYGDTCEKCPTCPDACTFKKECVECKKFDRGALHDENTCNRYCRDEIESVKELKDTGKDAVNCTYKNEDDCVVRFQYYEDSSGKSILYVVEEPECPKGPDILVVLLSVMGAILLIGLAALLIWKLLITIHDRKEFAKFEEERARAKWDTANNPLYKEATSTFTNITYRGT
T1 sequence (P08514 32-887 limits assumed): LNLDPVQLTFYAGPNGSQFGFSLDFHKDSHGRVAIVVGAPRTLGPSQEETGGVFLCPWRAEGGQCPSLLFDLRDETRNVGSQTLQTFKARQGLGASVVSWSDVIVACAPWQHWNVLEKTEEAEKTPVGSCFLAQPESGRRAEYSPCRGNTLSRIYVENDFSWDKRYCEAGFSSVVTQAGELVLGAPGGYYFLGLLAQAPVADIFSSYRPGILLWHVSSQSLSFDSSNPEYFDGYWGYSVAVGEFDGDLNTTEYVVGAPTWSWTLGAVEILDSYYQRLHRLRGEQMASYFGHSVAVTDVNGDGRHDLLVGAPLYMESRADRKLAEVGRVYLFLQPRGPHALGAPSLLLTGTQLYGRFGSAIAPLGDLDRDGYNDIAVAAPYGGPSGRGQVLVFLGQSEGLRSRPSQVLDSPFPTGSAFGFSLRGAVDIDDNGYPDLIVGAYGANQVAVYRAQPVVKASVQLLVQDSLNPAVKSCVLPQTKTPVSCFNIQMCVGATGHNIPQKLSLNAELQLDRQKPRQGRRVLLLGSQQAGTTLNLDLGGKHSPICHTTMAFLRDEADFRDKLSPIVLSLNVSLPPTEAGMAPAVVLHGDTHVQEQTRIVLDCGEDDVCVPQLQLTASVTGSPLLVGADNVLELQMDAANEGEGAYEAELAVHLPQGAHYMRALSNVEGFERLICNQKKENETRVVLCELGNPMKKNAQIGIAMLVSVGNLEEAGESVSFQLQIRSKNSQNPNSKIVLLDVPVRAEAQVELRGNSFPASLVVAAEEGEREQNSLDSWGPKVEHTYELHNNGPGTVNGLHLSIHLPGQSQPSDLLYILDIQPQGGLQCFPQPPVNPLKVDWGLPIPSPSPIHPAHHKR
T1 sequence (P08514 891-1039 limits assumed): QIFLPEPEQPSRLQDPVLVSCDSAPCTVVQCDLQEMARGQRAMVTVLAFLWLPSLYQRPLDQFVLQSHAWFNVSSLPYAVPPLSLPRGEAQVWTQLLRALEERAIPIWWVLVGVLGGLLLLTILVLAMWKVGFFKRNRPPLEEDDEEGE

[2] = Inhibition of human Biotinylated Fg binding to immobilized Alpha II biotinylated Fg beta-5
[3] = Half life was determined after peroral administration at 10 mg/kg; assay type: ADME, organism-based; design: dose 10 mg/kg, route oral; settings: rat, in vivo, po
[4] = Clearance was determined after intravenous administration at 2 mg/kg; assay type: ADME, organism-based; design: dose 2 mg/kg, route intravenous; settings: rat, in vivo
[5] = Oral bioavailability (dose in 5% dextrose in water at pH 2); assay type: ADME, organism-based; settings: rat, in vivo
[6] = AUC was determined after peroral administration at 10 mg/kg; assay type: ADME, organism-based; design: dose 10 mg/kg, route oral; settings: rat, plasma, po
[7] = target: T1, Integrin alpha-IIb/beta-3; experiment: Inhibition of human Biotinylated Fg binding to immobilized Alpha IIb beta-3 (N=1); assay type: protein-complex assay

Sequence of Integrin alpha-V/beta-3 (P05106 27-788 limits assumed): as the sequence (P05106 27-788 limits assumed) above
Sequence of Integrin alpha-V/beta-3 (P06756 31-889 limits assumed): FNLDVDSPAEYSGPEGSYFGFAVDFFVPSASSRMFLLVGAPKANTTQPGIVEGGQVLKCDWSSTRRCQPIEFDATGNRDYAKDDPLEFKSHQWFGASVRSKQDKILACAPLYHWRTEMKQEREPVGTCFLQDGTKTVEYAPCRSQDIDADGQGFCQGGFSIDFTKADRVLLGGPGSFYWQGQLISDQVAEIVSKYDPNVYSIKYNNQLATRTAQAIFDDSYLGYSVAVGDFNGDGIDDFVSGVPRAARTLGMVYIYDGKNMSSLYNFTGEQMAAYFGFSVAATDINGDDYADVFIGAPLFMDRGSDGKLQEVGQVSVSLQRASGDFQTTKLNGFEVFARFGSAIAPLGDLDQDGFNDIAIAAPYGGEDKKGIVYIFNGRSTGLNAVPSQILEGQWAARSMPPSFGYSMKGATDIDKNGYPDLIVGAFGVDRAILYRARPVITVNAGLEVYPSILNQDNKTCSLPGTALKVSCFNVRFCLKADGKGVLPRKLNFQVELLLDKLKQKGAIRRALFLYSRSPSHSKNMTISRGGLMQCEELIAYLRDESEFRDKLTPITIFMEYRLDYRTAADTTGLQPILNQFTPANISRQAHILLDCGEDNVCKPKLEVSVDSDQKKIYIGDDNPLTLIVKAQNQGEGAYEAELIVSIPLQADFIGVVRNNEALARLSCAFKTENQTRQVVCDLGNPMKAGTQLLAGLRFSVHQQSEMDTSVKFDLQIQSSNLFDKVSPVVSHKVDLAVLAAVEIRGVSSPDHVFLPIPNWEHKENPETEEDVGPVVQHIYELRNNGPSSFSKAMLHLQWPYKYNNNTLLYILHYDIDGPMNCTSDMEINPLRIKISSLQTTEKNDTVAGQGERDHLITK
Sequence of Integrin alpha-V/beta-3 (P06756 891-1048 limits assumed): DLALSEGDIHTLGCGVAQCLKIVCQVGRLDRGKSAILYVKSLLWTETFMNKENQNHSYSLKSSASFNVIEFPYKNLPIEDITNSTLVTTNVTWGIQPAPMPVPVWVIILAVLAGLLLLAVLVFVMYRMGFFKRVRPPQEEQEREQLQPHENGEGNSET

Row | Compound | IC50 (Integrin alpha-V/beta-3) [nM] | IC50 [1] [nM] | IC50 [2] [nM] | half-life [3] [h] | CI [4] [mg/kg/µM/h] | bioavailability [5] [%] | AUC [6] [µM·h] | IC50 [7] [nM]
1 | O=C(O)CC(NC(=O)C1CCN(C(=O)c2cccc(NC3=CCC(O)CN3)c2)CC1)c1cnc2ccccc2c1 (stereo unspecified) | 5.5 | 177 |  |  |  |  |  | 
2 | O=C(O)CC(CC1CCN(C(=O)CCc2ccc3c(n2)NCCC3)CC1)c1ccc2ccccc2c1 (stereo unspecified) |  | > 10000 | 24.5 | 5.65 | 0.02 | 47 | 286 | 
3 | O=C(O)CC(NC(=O)C1CCN(C(=O)CCc2ccc3c(n2)NCCC3)CC1)c1ccc2c(c1)OCO2 (stereo unspecified) | 21.7 | 15700 |  | 6.7 | 0.09 | 2.4 | 79 | 
4 | O=C(O)CC(CC1CCN(C(=O)CCCc2ccc3c(n2)NCCC3)CC1)c1ccc2c(c1)OCO2 (stereo unspecified) | 20.6 | 4260 | 220 |  |  |  |  | 
5 | N/C(=N\Cc1ccncc1)Nc1cccc(C(=O)N2CCC(C(=O)NC(CC(=O)O)c3ccc4c(c3)OCO4)CC2)c1 (stereo unspecified) | 25.3 | 56.4 |  |  |  |  |  | 
6 | O=C(O)CC(CC1CCN(C(=O)CCc2ccc3c(n2)NCCC3)CC1)c1cccnc1 (stereo unspecified) |  |  | 1.7 |  | 1.1 | 0 |  | 
7 | O=C(O)C[C@H](NC(=O)[C@@H]1CCCN(C(=O)CCC2CCNCC2)C1)c1cccnc1 [ELAROFIBAN] | > 50000 | 0.15 |  |  |  |  |  | 
8 | Cc1ncc(C(CC(=O)O)CC2CCN(C(=O)CCc3ccc4c(n3)NCCC4)CC2)cn1 (stereo unspecified) |  |  |  | 2.6 | 10.4 | 4 | < 0.1 | 
9 | O=C(O)CC(NC(=O)C1CCN(C(=O)CCCNC2=NCCN2)CC1)c1cnc2ccccc2c1 (stereo unspecified) | 2.8 | 79.3 |  |  |  |  |  | 
10 | O=C(O)CC(CCC1CCN(C(=O)c2cccc(NC3=NCC(O)CN3)c2)CC1)c1ccc2c(c1)OCO2 (stereo unspecified) | 1.7 | 1580 |  | 5.4 | 0.04 | 2.6 | 21.2 | 
11 | O=C(O)CC(CCC1CCN(C(=O)Cc2ccc3c(n2)NCCC3)CC1)c1ccc2c(c1)OCO2 (stereo unspecified) | 75 | > 10000 | 405 |  |  |  |  | 
12 | O=C(O)CC(CC1CCN(C(=O)CCc2ccc3c(n2)NCCC3)CC1)c1ccc2c(c1)OCO2 (stereo unspecified) |  |  | 2.3 | 2.1 | 0.1 | 31 | 97 | 
13 | O=C(O)CC(c1ccc2c(c1)OCO2)C1CCN(C(=O)Cc2ccc3c(n2)NCCC3)CC1 (stereo unspecified) |  |  | 775 |  |  |  |  | > 10000
14 | O=C(O)CC(CC1CCN(C(=O)CCc2ccc3c(n2)NCCC3)CC1)c1cccc(F)c1 (stereo unspecified) |  | > 10000 | 2.8 | 1.7 | 0.5 | 14 | 2.7 | 
15 | O=C(O)CC(c1ccc2c(c1)OCO2)C1CCN(C(=O)CCc2ccc3c(n2)NCCC3)CC1 (stereo unspecified) | 28.1 | 6190 | 95.7 |  |  |  |  | 
16 | O=C(O)CC(NC(=O)C1CCN(C(=O)CCc2ccc3c(n2)NCCC3)CC1)c1cnc2ccccc2c1 (stereo unspecified) | 2.6 | 2850 |  |  |  |  |  | 
17 | O=C(O)CC(CCC1CCN(C(=O)CCc2ccc3c(n2)NCCC3)CC1)c1ccc2c(c1)OCO2 (stereo unspecified) |  | 4360 |  | 3 | 0.09 | 88 | 304 | 
18 | O=C(O)CC(NC(=O)C1CCN(C(=O)c2cccc(NC3=CCCCN3)c2)CC1)c1ccc2c(c1)OCO2 (stereo unspecified) | 10.4 | 209 |  |  |  |  |  | 
19 | COc1ncc(C(CC(=O)O)CC2CCN(C(=O)CCc3ccc4c(n3)NCCC4)CC2)c(OC)n1 (stereo unspecified) | 1.5 |  | 4.6 |  | 1 | 1 | 0.1 | 
20 | O=C(O)CC(CCC1CCN(C(=O)CCCNc2ccccn2)CC1)c1ccc2c(c1)OCO2 (stereo unspecified) | 233 | 10900 |  | 6.6 | 0.2 | 96 | 142 | 
21 | O=C(O)CC(c1ccc2c(c1)OCO2)C1CCN(C(=O)CCCc2ccc3c(n2)NCCC3)CC1 (stereo unspecified) |  |  | 33.5 |  |  |  |  | 
